# Source: patent US5422372A, “Method of increasing intracellular accumulation of hydrophilic anionic agents using gemfibrizol” (priority 1993, dated 1995)
# Entries after “also recorded” stand apart in the source; their conditions may differ. Read-outs that look alike come from different tables or passages of the source.
# Legend:
# L. monocytogenes [1] = assay: Extracellular growth assay: minimum bacteriocidal concentration (MBC); assay type: cell-based; conditions: Listeria monocytogenes; brain-heart infusion broth; read-out: NFX concentration bacteriocidal for LM (MBC)
# Description: 10 μl of the contents of each sample from the MIC assay described above was plated on 10 cm plates containing 20 ml. LB, agar, and the plates were incubated overnight at 25° C., 30° C. and 35° C. The number of colonies were counted.
# [2] = test system: organic anion transporters of J774 cells; assay type: cell-based, mouse; conditions: for intracellular accumulation of radiolabel from [3H] norfloxacin: J774 cells incubated with [3H] norfloxacin and the inhibitor
# Description: [^3 H]-Norfloxacin Retention in J774 Cells: J774 cells were prepared as above. The cells were incubated in PBS with 1.5 μCi/ml [^3 H] norfloxacin in the presence or absence of 10 mM probenecid for various lengths of time, washed and lysed. Cell-associated radioactivity and protein were quantitated as above.
# L. monocytogenes [3] = assay: Extracellular growth assay: minimum inhibitory concentration (MIC); assay type: cell-based; conditions: Listeria monocytogenes; brain-heart infusion broth; read-out: NFX concentration that blocked growth of LM (MIC)
# Description: L. monocytogenes were inoculated into 1 ml of BHI broth and grown overnight in BHI broth to a density of approximately 10^9 bacteria per ml, diluted to a concentration of 2×10^3 bacteria per ml in Brain Heart Infusion Broth, and 0.5 ml aliquots of this suspension were placed in separate tubes. Norfloxacin (NFX) at the indicated concentrations in 0.5 ml BHI broth was added to the tubes containing L. monocytogenes, and the bacteria were incubated overnight at 25° C., 30° C. and 35° C. The MIC of NFX for L. monocytogenes was determined by visual inspection (tubes without antibiotic, in which the bacteria grew contained a cloudy suspension).
# [4] = test system: Listeria monocytogenes in J774 cells; assay: Intracellular growth of Listeria monocytogenes in J774 cells; assay type: cell-based
# Description: J774 cells grown in spinner culture were centrifuged for 5 min. at 1000 RPM. The cells were resuspended in fresh DME+5% HICS without antibiotics at a concentration of 2×10^5. 5 ml of this cell suspension was plated into each 60 mm Petri dish containing multiple 12×1 mm round coverslips (Fisher Scientific Co.) the evening before use to allow the cells to form monolayers on the coverslips. The cells were incubated overnight at 37° C.
# L. monocytogenes was incubated overnight in BHI broth to a density of approximately 10^9 /ml in a shaker at 37° C. 1 ml of the bacterial suspension was sedimented in a microfuge tube (USA/Scientific Plastics, Ocala, Fla.) for 1 min at 8000 RPM. The supernatant was removed and the pellet was washed once in 1 ml of PBS at pH 7.4. The bacteria were then resuspended in 1 ml fresh DME+5% HICS, diluted in DME+5% HICS to a concentration of 2×10^5 bacteria per ml, and 5 ml of this suspension (10^6 bacteria total) was placed in each 60 mm dish containing a monolayer of J774 cells (infection ratio 1:1). The dishes were incubated at 35° C. for 60 minutes. The coverslip was then transferred to a new 60 mm petri dish containing 10 ml of pre warmed DME+5% HICS and 5 μg/ml of gentamicin. The cells were incubated in the gentamicin containing medium for 1 hr. at 35° C. to kill extracellular bacteria, as described by Portnoy et al. (9), at which time additional drugs were added as indicated below. One 60 mm dish received no addition (control). Other 60 mm dishes received Gemfibrozil (GFZ) (0.2 mM), and/or Norfloxacin (NFX) at 2, 4 or 8 μg per ml, as indicated. Drugs were added either separately or in combination to make four independent sets: No addition, GFZ alone, NFX alone, or GFZ+NFX. The cultures were further incubated at 35° C. Three coverslips containing the Listeria-infected J774 cells were harvested from each culture dish at 2 hours after infection and at 2 hour intervals thereafter. The number of bacteria in the J774 cells on each cover slip was determined by depositing each coverslip into 5 ml of sterile distilled water in a 15 ml Falcon tube. The tubes were vortexed for 15 sec. to lyse the infected cells and 10 or 50 μL of each Listeria-containing solution was plated onto 10 cm dishes containing LB agar. The LB agar plates were incubated at 37° C. overnight, the bacterial colonies were counted, and the number of bacteria per cover slip was calculated from the number of colonies on the agar. Every data point represents the average of the number of bacterial colonies recovered from three coverslips.
# [5] = test system: organic anion transporters of J774 cells; conditions: cited from earlier work; for effect on intracellular sequestration and secretion of Lucifer Yellow: macrophages and J774 cells
# [6] = test system: organic anion transporters of J774 cells; assay: Intracellular Lucifer Yellow accumulation during ATP permeabilization of J774 cells; assay type: cell-based, mouse; conditions: for effect on intracellular accumulation of Lucifer Yellow during ATP permeabilization: added together with 0.5 mg/ml Lucifer Yellow and 5 mM ATP
# Description: The cells were incubated in phosphate buffered saline with divalent cations (PBS) containing 0.5 mg/ml Lucifer Yellow, 5 mM ATP and other compounds, at 37° C. as indicated in the text. The wells were washed with cold phosphate buffered saline without divalent cations (PD) 3 times, and plates were immersed successively in three beakers containing 1,000 ml cold PD. The first beaker also contained 0.1% bovine serum albumin. The cells then were lysed in 0.05% Triton X-100, and fluorescence was measured in a fluorescence spectrophotometer using an excitation wavelength of 430 nm and an emission wavelength 540 nm. Total cell protein was measured by a modification of the Lowery method. (6) Results were expressed as ng Lucifer Yellow/mg protein.
# An assay to identify competitive inhibitors of the organic anion transporters that mediate the secretion of Lucifer Yellow was developed. It was reasoned that any substrate of the organic anion transporter small enough to enter the cells through ATP-induced pores, when added together with Lucifer Yellow during ATP permeabilization, would compete with Lucifer Yellow for efflux and cause higher intracellular accumulation of Lucifer Yellow. This assay was used to determine whether various substrates for other organic anion transporters competed with Lucifer Yellow for secretion by J774 cells.
# Toxicity to J774 cells = assay type: cell-based; conditions: mouse, read-out: concentrations toxic to the cells
# [7] = test system: organic anion transporters of J774 cells; assay type: cell-based, mouse
# [8] = test system: organic anion transporters of J774 cells; assay: Lucifer Yellow secretion (efflux) from J774 cells; assay type: cell-based, mouse
# Description: Cells were incubated in D10 containing 0.5 mg/ml Lucifer Yellow and 5 mM ATP with or without 10 mM penicillin G. The cells were then washed and incubated in fresh medium at 37° C. At intervals, the cells were viewed by fluorescence microscopy.
# [9] = test system: organic anion transporters of J774 cells
# J774 cells = assay: Uptake of [14C] penicillin G by adherent J774 cells from extracellular medium; assay type: cell-based, mouse; conditions: even in the presence of 10 mM probenecid
# Description: It was then questioned whether penicillin G was taken up by J774 cells from the extracellular medium, and whether this uptake was affected by organic anion transporters. In these experiments, adherent J774 cells were incubated in medium containing [^14 C] penicillin G, the cells were washed, and intracellular radiolabel was measured.
structure (smiles),measurement,setting,value
"CCn1cc(C(=O)O)c(=O)c2cc(F)c(N3CCNCC3)cc21 [NFX, Norfloxacin]",MBC,L. monocytogenes [1],8 µg/mL
same,time at which intracellular norfloxacin concentration reached plateau,[2],≤ 10 min
same,MIC,L. monocytogenes [3],4 µg/mL
same,intracellular growth of LM in J774 cells,[4]; 2 μg/ml NFX alone,little inhibitory effect; also recorded: slowed intracellular growth
same,intracellular growth of LM in J774 cells,[4]; 4 μg/ml NFX alone,marked inhibition of intracellular growth; also recorded: bacteriostatic
same,intracellular growth of LM in J774 cells,[4]; 8 μg/ml NFX alone,bacteriostatic effect
NNC(=O)NN1C(=O)c2cc(S(=O)(=O)O)cc3c(N)c(S(=O)(=O)O)cc(c23)C1=O [Lucifer Yellow],dye secreted by the cells into the medium,[5]; within 30 minutes after ATP-mediated permeabilization,80-85%
NC(=O)c1cnccn1 [pyrazinamide],effect on intracellular accumulation of Lucifer Yellow during ATP permeabilization,[6],had no effect
O=C1C(CC[S+]([O-])c2ccccc2)C(=O)N(c2ccccc2)N1c1ccccc1 (centres unmarked) [sulfinpyrazone],MCC,Toxicity to J774 cells,> 2.5 mM
same,effect on intracellular sequestration and secretion of Lucifer Yellow,[5],inhibit both intracellular sequestration and secretion of Lucifer Yellow
same,intracellular accumulation of radiolabel from [3H] norfloxacin,[2],marked increase
same,ED50 for enhancing intracellular retention of norfloxacin (in words),"[7]; 30 minutes, J774 cells",essentially the same as that for probenecid
same,"concentrations that block secretion of Lucifer Yellow, penicillin and Norfloxacin",[8],2 to 5 mM
"Cc1ccc(C)c(OCCCC(C)(C)C(=O)O)c1 [GFZ, 5-(2,5-dimethylphenoxy)-2,2-dimethylpentanoic acid]",intracellular growth of LM in J774 cells,[4]; 0.2 mM GFZ alone,has no effect on the rate or extent of growth; also recorded: does not inhibit growth
same,enhancement of intracellular accumulation of NFX,[7]; 0.2 mM GFZ,four-fold
same,EC50,"[7]; J774 cells, read-out: ED50 for enhancing intracellular accumulation of [3H]NFX",15 µM
same,ED50 lower than the ED50 of PB or sulfinpyrazone,[7]; [3H]NFX accumulation by J774 cells,30 fold
same,concentration inhibiting Lucifer Yellow secretion relative to PB,[8],ten-fold lower concentration than PB
O=C(O)[C@H](O)[C@@H](O)[C@H](O)[C@H](O)CO [Gluconic acid],effect on intracellular accumulation of Lucifer Yellow during ATP permeabilization,[6],had no effect
same,effect on intracellular norfloxacin concentration,[7]; 10 mM gluconic acid compared with norfloxacin only in PBS,did not affect
CC1(C)S[C@@H]2[C@H](NC(=O)Cc3ccccc3)C(=O)N2[C@H]1C(=O)O [penicillin G],effect on intracellular accumulation of Lucifer Yellow during ATP permeabilization,[6],increase Lucifer Yellow retention in a dose-dependent manner
same,penicillin originally inside the cells secreted into the medium,[9],about 80%
same,intracellular radiolabel after incubation with [14C] penicillin G without ATP permeabilization,J774 cells,could not be readily detected
same,accumulation of [3H] norfloxacin in preloaded cells,"[7]; preloaded with 10 mM by ATP-permeabilization, compared with 10 mM gluconic acid preload",significant increase
same,rate of Lucifer Yellow efflux after co-loading by ATP permeabilization,"[8]; 10 mM penicillin G, fluorescence microscopy",reduced the rate of Lucifer Yellow afflux
"CCCN(CCC)S(=O)(=O)c1ccc(C(=O)O)cc1 [probenecid, Probenecid]",effect on intracellular sequestration and secretion of Lucifer Yellow,[5],inhibit both intracellular sequestration and secretion of Lucifer Yellow
same,increase of intracellular retention of Lucifer Yellow,[6]; 5-10 mM probenecid in medium with Lucifer Yellow and ATP,2.5 fold
same,intracellular penicillin secreted from the cells,"[9]; after 30 minutes, in the presence of 10 mM probenecid",37%
same,intracellular accumulation of radiolabel from [3H] norfloxacin,[2],marked increase
same,time at which intracellular norfloxacin concentration reached plateau,[2]; in the presence of 10 mM probenecid,30 min
same,enhancement of intracellular accumulation of norfloxacin,"[2]; j774 cells, 10000 µM",3-4 fold
same,reversibility of the effect on norfloxacin retention,"[7]; 10 mM probenecid 30 minutes, then washed",reversible
same,EC50,"[7]; 30 minutes, J774 cells, read-out: ED50 for enhancing intracellular retention of norfloxacin",500 µM
same,[3H] norfloxacin remaining in cells after probenecid removal relative to cells never incubated in probenecid,[7]; steady state after removal of 10 mM probenecid,twice
same,"concentrations that block secretion of Lucifer Yellow, penicillin and Norfloxacin",[8],2 to 5 mM
